The results in this text go back to patent publication US7605272B2, “IGF-1R inhibitor” (Kyowa Hakko Kirin Co., Ltd., priority 2005, dated 2009).

This assay deals with T1, IGF-1R (Homo sapiens, UniProt P08069).
T1 construct: purchased Upstate Co. 14-465
The experiment in a line: IGF-1R inhibitory activity (kinase reaction, time-resolved fluoroimmunoassay). The class given is biochemical. Particulars: test compound 10 μmol/L. As for the experimental part: The IGF-1R inhibitory activity was measured in the following manner.
As IGF-1R, active recombinant enzyme (Catalog No. 14-465) purchased from Upstate Co., was used. To 96 well plate (FIA-PLATE BLACK 96 well FALT-BOTTOM HIGH BINDING, Greiner Bio-one, Catalog No. 655077) coated with NeutroAvidin (Pierce, Catalog No. 31000), biotinylated polyglutamic acid-tyrosine peptide (Nihon Schering K.K., Catalog No. 61GT0BAA) was immobilized and then blocked with 0.25% gelatin to be used as a plate for measuring the kinase reaction. Separately was prepared a solution containing at final concentrations, IGF-1R (200 μg/L), Tris.HCl(pH 7.5)(20 mmol/L), Na3VO4(0.1 mmol/L), MgCl2(1 mmol/L), MnCl2(10 mmol/L), ATP(10 mmol/L), 2-mercaptoethanol (0.04%), BSA(Bovine Serum Albumin) (0.1%), DMSO(0.1%), test compound (10 μmol/L). The solution (each 50 μL) was added to the well of the plate for measuring the kinase reaction and then, enzyme reaction was performed for 30 minutes at 24° C. The plate was washed with TBS-T [10 mmol/L Tris Cl (pH 7.5), 150 mmol/L NaCl, 0.05% Tween 20 (Bio-Rad, Catalog No. 170-6531)] 4 times, then reacted with europium-labeled anti-phosphotyrosine antibody, further washed with TBS-T 4 times and then, measured with time-resolved fluoroimmunoassay (excitation wavelength 340 nm, measuring wavelength 615 nm). The value of a well to which the test compound had not been added was considered as 100% and that of a well where the enzyme and the test compound had not been added was considered as 0%. The relative activity (%) of the well which was added with enzyme and the test compound was measured and by subtracting the calculated value from 100, IGF-1R inhibitory activity of the test compound (%) was determined.

[1] abbreviates: IGF-1R active recombinant enzyme.

T1 sequence (P08069 959-1367 limits assumed): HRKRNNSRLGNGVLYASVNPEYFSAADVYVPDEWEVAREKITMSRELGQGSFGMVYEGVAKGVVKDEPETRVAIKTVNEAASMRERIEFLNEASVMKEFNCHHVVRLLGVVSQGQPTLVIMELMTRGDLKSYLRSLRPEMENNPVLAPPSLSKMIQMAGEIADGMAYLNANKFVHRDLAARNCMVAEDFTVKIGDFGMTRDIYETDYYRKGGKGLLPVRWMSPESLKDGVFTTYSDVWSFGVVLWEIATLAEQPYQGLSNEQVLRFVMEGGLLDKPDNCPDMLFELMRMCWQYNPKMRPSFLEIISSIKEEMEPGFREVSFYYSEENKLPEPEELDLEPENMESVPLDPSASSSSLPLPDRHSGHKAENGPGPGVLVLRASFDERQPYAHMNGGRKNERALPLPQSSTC

Regarding `C(=C\c1n[nH]c2ccccc12)/c1ccccc1NCc1ccccc1` [Compound 26, (E)-N-benzyl-N-{2-[2-(1H-indazol-3-yl)vinyl]phenyl}amine], under setting [1], the inhibition (commonly the change of the read-out against control, counted positive when it falls) at 10 µM was found to be 67.8%.

As for `O=C(Nc1ccccc1/C=C/c1n[nH]c2ccccc12)c1cc2ccccc2o1` [Compound 49, (E)-N-{2-[2-(1H-indazol-3-yl)vinyl]phenyl}benzofuran-2-carboxamide], the inhibition at 10 µM under setting [1] was 103%.

Consider `O=C(Nc1ccccc1/C=C/c1n[nH]c2ccccc12)c1cc2ccccc2[nH]1` [Compound 50, (E)-N-{2-[2-(1H-indazol-3-yl)vinyl]phenyl}-1H-indole-2-carboxamide], for which, under setting [1], the inhibition at 10 µM was 98.5%.

As for `O=C(Nc1ccccc1/C=C/c1n[nH]c2ccccc12)c1ccc([N+](=O)[O-])s1` [Compound 51, (E)-N-{2-[2-(1H-indazol-3-yl)vinyl]phenyl}-5-nitrothiophene-2-carboxamide], the inhibition at 10 µM under setting [1] worked out at 100%.

As for `Cc1oncc1C(=O)Nc1ccccc1/C=C/c1n[nH]c2ccccc12` [Compound 72, (E)-N-{2-[2-(1H-indazol-3-yl)vinyl]phenyl}-5-methylisoxazole-4-carboxamide], under setting [1], the inhibition at 10 µM came to 82.7%.

For `O=C(Nc1ccccc1/C=C/c1n[nH]c2ccccc12)c1ccccc1[N+](=O)[O-]` [Compound 74, (E)-N-{2-[2-(1H-indazol-3-yl)vinyl]phenyl}-2-nitrobenzamide], the inhibition at 10 µM under setting [1] stood at 97.6%.

Consider `CN(C)/C=N/c1ccccc1C=Cc1n[nH]c2ccccc12` [Compound 75, (E)-N-{2-[2-(1H-indazol-3-yl)vinyl]phenyl}-N,N-dimethylformamidine], for which the “inhibitory activity (%) at 10 μmol/L” value under setting [1] was 90.4%.

Take `O=C(Nc1ccccc1/C=C/c1n[nH]c2ccccc12)c1ccc(CO)cc1` [Compound 79, (E)-4-hydroxymethyl-N-{2-[2-(1H-indazol-3-yl)vinyl]phenyl}benzamide]: the inhibition at 10 µM under setting [1] worked out at 97.2%.

With `O=C(Nc1ccccc1/C=C/c1n[nH]c2ccccc12)c1ccc(CN2CCOCC2)cc1` [Compound 80, (E)-N-{2-[2-(1H-indazol-3-yl)vinyl]phenyl}-4-(morpholin-4-ylmethyl)benzamide], the inhibition at 10 µM under setting [1] worked out at 96.6%.

For `O=C(Nc1ccccc1/C=C/c1n[nH]c2ccccc12)c1ccc([N+](=O)[O-])cc1Cl` [Compound 81, (E)-2-chloro-N-{2-[2-(1H-indazol-3-yl)vinyl]phenyl}-4-nitrobenzamide], the inhibition at 10 µM came to 60.7%.

With `CSc1ccc(C(=O)Nc2ccccc2/C=C/c2n[nH]c3ccccc23)cc1` [Compound 82, (E)-N-{2-[2-(1H-indazol-3-yl)vinyl]phenyl}-4-methylsulphanylbenzamide], the inhibition at 10 µM came out at 84.7%.

As for `COc1cccc(/C=C/c2n[nH]c3ccccc23)c1N` [Compound 93, (E)-2-[2-(1H-indazol-3-yl)vinyl]-6-methoxyphenylamine], the inhibition at 10 µM was 70.6%.

With `Cc1ccsc1C(=O)Nc1cc(C(=O)NCCO)ccc1/C=C/c1n[nH]c2ccccc12` [Compound 114, (E)-N-{5-[N-(2-hydroxyethyl)carbamoyl]-2-[2-(1H-indazol-3-yl)vinyl]phenyl}-3-methylthiophene-2-carboxamide], the inhibition at 10 µM was found to be 92%.

As for `COCc1ccc(/C=C/c2n[nH]c3ccccc23)c(NC(=O)c2sccc2C)c1` [Compound 121, (E)-N-{2-[2-(1H-indazol-3-yl)vinyl]-5-(methoxymethyl)phenyl}-3-methylthiophene-2-carboxamide], the inhibition at 10 µM is 98.6%.

As for `Cn1cccc1C(=O)Nc1cc(C(=O)N2CCOCC2)ccc1/C=C/c1n[nH]c2ccccc12` [Compound 123, (E)-N-{2-[2-(1H-indazol-3-yl)vinyl]-5-(morpholin-4-ylcarbonyl)phenyl}-1-methylpyrrole-2-carboxamide], the inhibition at 10 µM came to 95.9%.

For `CCN(CC)C(=O)c1ccc(/C=C/c2n[nH]c3ccccc23)c(NC(=O)c2sccc2C)c1.Cl` [Compound 124, (E)-N-{5-(N,N-diethylcarbamoyl)-2-[2-(1H-indazol-3-yl)vinyl]phenyl}-3-methylthiophene-2-carboxamide hydrochloride], the “inhibitory activity (%) at 10 μmol/L” value amounted to 98.9%.

For `Cc1ccsc1C(=O)Nc1cc(C(=O)N(C)C)ccc1/C=C/c1n[nH]c2ccccc12.Cl` [Compound 125, (E)-N-{5-(N,N-dimethylcarbamoyl)-2-[2-(1H-indazol-3-yl)vinyl]phenyl}-3-methylthiophene-2-carboxamide hydrochloride], the “inhibitory activity (%) at 10 μmol/L” value is listed as 100.9%.

Consider `Cc1ccsc1C(=O)Nc1cc(C(=O)N2CCN(C)CC2)ccc1/C=C/c1n[nH]c2ccccc12` [Compound 126, (E)-N-{2-[2-(1H-indazol-3-yl)vinyl]-5-(4-methylpiperazin-1-ylcarbonyl)phenyl}-3-methylthiophene-2-carboxamide], for which the inhibition at 10 µM was determined as 98.8%.

On to `COC1CCN(C(=O)c2ccc(/C=C/c3n[nH]c4ccccc34)c(NC(=O)c3sccc3C)c2)CC1.Cl` [Compound 127, (E)-N-{2-[2-(1H-indazol-3-yl)vinyl]-5-(4-methoxypiperidin-1-ylcarbonyl)phenyl}-3-methylthiophene-2-carboxamide hydrochloride], for which the “inhibitory activity (%) at 10 μmol/L” value was 101.9%.

Take `Cc1ccsc1C(=O)Nc1cc(C(=O)N2CCN(C)CC2)ccc1/C=C/c1n[nH]c2ccccc12.Cl` [Compound 128, (E)-N-{2-[2-(1H-indazol-3-yl)vinyl]-5-(4-methylpiperazine-1-ylcarbonyl)phenyl}-3-methylthiophene-2-carboxamide hydrochloride]: the “inhibitory activity (%) at 10 μmol/L” value is given as 98.8%.

`Cc1ccsc1C(=O)Nc1cc(C(=O)N2CCC3(CC2)OCCO3)ccc1/C=C/c1n[nH]c2ccccc12.Cl` [Compound 129, (E)-N-{5-(1,4-dioxa-8-azaspiro[4,5]decane-8-carbonyl)-2-[2-(1H-indazol-3-yl)vinyl]phenyl}-3-methylthiophene-2-carboxamide hydrochloride]: the “inhibitory activity (%) at 10 μmol/L” value worked out at 99.9%.

For the compound `COc1ccccc1/C=C/c1n[nH]c2ccccc12` [Compound 135, (E)-3-[2-(2-methoxyphenyl)vinyl]-1H-indazole], the inhibition at 10 µM under setting [1] was 86.6%.

As to `O=C(Nc1nc[nH]n1)c1ccccc1/C=C/c1n[nH]c2ccccc12` [Compound 139, (E)-2-[2-(1H-indazol-3-yl)vinyl]-N-(1H-[1,2,4]triazol-3-yl)benzamide], the inhibition at 10 µM under setting [1] came out at 93.9%.

Turning to `Cc1csc(NC(=O)c2ccccc2/C=C/c2n[nH]c3ccccc23)n1` [Compound 143, (E)-2-[2-(1H-indazol-3-yl)vinyl]-N-(4-methylthiazol-2-yl)benzamide], the inhibition at 10 µM under setting [1] was 94.9%.

With `CSc1ccccc1/C=C/c1n[nH]c2ccccc12` [Compound 146, (E)-3-[2-(2-methylsulfanylphenyl)vinyl]-1H-indazole], the inhibition at 10 µM under setting [1] is 78.3%.

Regarding `C(=C\c1cccc2nc(-c3cccs3)oc12)/c1n[nH]c2ccccc12` [Compound 149, (E)-7-[2-(1H-indazol-3-yl)vinyl]-2-(thiophen-2-yl)benzoxazole], the inhibition at 10 µM under setting [1] is 70%.

As to `O=C1c2ccccc2C(=O)N1c1cccc(Cl)c1/C=C/c1n[nH]c2ccccc12` [Compound 154, (E)-2-{3-chloro-2-[2-(1H-indazol-3-yl)vinyl]phenyl}isoindole-1,3-dione], the inhibition at 10 µM under setting [1] was 97.1%.
